Data taken from US20040106647A1, “Modulators of Cdk9 as a therapeutic target in cardiac hypertrophy” (priority 2002, published 2004).
Each block holds one molecule with its values, some of them ahead of it.

How the values were obtained:
[1] = test system: pol II CTD; experiment: Western blotting of pol II CTD phosphorylation in cultured ventricular myocytes; assay type: cell-based, rat; conditions: for hyperphosphorylation of pol II: serum-starved 24 hr, stimulated 15 min, ET-1 0.1 μM, PE 0.1 μM, HB-EGF 1 nM
Description: Western blotting was performed using the identical cell lysates. The following antibodies were used: rabbit antibodies against pol II, Cdk7, Cyclin H, MAT1, CyclinT1, Hsp70, Hsp90 and Cdc37; goat antibody against Cyclin T2a/b; and mouse monoclonal antibodies to the Ser2 and Ser5 CTD phoshopeptides (Patturajan et al., 1998; Herrmann et al., 2001). Protein expression was visualized using horseradish peroxidase-conjugated second antibodies and enhanced chemiluminescence reagents (Amersham Pharmacia Biotech).
(§1) Neonatal ventricular myocytes from 1 to 2 day-old Sprague-Dawley rats were subjected to Percoll gradient centriftigation and differential plating, to enrich for cardiac myocytes and deplete nonmyocytes (Oh et al., 2001). Cells were infected for 6 hr, after overnight culture, at a multiplicity of infection (MOI) of 20, then were cultured in serum-free medium for an additional 24 hr before the addition of agonists. The efficiency of viral gene transfer is >95% under the conditions used. DRB (Sigmna) was dissolved in dimethylsulfoxide (DMSO) and then in culture medium to the desired final concentration in 0.1% (vol/vol) DMSO.
Briefly, ventricular myocytes were analyzed by Western blotting as in Example 1. Ventricular myocytes were serum-starved for 24 hr, stimulated for 15 min with ET-1 (0.1 μM), PE (0.1 μM), HB-EGF (1 nM), or the vehicle, and analyzed by Western blotting with antibody to the pol II CTD. Ventricular myocytes were stimulated with ET-1 for the indicated times.
(§2) Next, cells were preincubated with DRB for 2 hr at the concentrations shown, and were assayed for pol II phosphorylation after stimulation with ET-1 for 15 min or the indicated intervals. Immune complexes were treated in vitro with 50 μM DRB and assayed by phosphorylation of the recombinant GST-CTD substrate. […] Based on this effect, 50 μM DRB was added in vitro to cardiac Cdk9 and Cdk7 immune complexes, and assayed for its effect on phosphorylation of the recombinant CTD substrate.

[2] = biological target: T1, Cdk7 (Rattus norvegicus, UniProt P51952); experiment: Immune complex CTD kinase assay (GST-CTD substrate), Cdk7; assay type: biochemical; conditions: 50 μM DRB added in vitro to cardiac immune complexes
T1 construct: endogenous in cells; host or cells: neonatal rat ventricular myocytes; immunoprecipitated with polyclonal rabbit anti-Cdk7 and protein A-Sepharose
T1 sequence (P51952 1-329): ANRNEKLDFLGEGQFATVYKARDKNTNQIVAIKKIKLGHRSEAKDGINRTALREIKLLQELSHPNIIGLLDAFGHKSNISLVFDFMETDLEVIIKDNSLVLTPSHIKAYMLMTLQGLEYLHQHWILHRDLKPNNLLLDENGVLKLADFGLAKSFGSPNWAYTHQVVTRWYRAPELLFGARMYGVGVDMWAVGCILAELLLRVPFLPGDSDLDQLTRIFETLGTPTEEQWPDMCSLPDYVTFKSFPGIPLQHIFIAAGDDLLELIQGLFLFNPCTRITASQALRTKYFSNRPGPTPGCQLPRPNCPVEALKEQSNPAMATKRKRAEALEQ
T1 sequence (Q9R1A0 1-323 partner): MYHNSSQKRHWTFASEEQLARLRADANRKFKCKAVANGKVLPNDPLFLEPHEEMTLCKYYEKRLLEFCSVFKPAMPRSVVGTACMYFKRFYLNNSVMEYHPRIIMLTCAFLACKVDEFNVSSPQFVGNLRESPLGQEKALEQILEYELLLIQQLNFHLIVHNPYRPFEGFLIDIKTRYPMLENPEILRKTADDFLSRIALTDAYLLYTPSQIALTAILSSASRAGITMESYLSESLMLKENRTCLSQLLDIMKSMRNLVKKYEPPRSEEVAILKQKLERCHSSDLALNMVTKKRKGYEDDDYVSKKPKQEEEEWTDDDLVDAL
Description: (§3) Immune complex kinase assays were performed as described (Yang et al., 1996), using polyclonal rabbit antibody against Cdk7 or Cdk9 together with protein A-Sepharose. Kinase assays were performed by adding 25 μl of 50 mM Tris-HCl [pH 7.4], 10 mM MgCl2, 5 mM dithiothreitol, 2.5 mM MnCl2, 5 μM ATP, 5 μCi of [γ-^32P]ATP, and 200 ng of GST-CTD to the beads and incubating at room temperature for 60 min. The complexes were resolved by SDS-polyacrylamide gel electrophoresis, and CTD phosphorylation was visualized by autoradiography and quantified using a phosphorimager and ImageQuant version 5.2 (Molecular Dynamics). Where indicated, immunoprecipiates were incubated with 50 μg/ml of bovine pancreas ribonuclease A (RNase A; Sigma) for 60 min prior to the CTD kinase assay.
as §2

[3] = test system: cardiac myocytes; experiment: Myocyte apoptosis by flow cytometry (hypodiploid DNA); assay type: cell-based
Excerpt: Myocyte apoptosis was monitored by flow cytometry as hypodiploid DNA, using FITC-conjugated MF20 antibody to sarcomeric myosin heavy chains and propidium iodide in the presence of RNase A (Oh et al., 2001).

[4] = test system: cardiac myocytes; experiment: [3H]uridine incorporation (RNA synthesis) in cardiac myocytes; assay type: cell-based, rat
Description: as §1
Cells were incubated for 24 hr with 1 μCi/ml of either precursor, in the absence or presence of ET-1 and [^3H]uridine and [^3H]phenylalanine incorporation was measured. Total RNA was extracted using TRIzol (Invitrogen), for simultaneous extraction of DNA from the samples.
(§4) Hypertrophy was monitored as [^3H]uridine incorporation (FIG. 2F, FIG. 2H; n=4 per group) and [^3H]phenylalanine incorporation (FIG. 2I; n=6 per group), corrected for DNA content. Myocyte size was visualized with eGFP (FIG. 2G, FIG. 2J). Bar, 100 μm.

[5] = test system: cardiac myocytes; experiment: Myocyte size visualized with eGFP; assay type: cell-based, rat; conditions: DRB pretreatment, ET-1 stimulation
Description: as §1, §4

[6] = test system: mitogen-activated protein kinases; experiment: Phosphorylation of mitogen-activated protein kinases in cultured cardiac myocytes; assay type: cell-based, rat; conditions: 50 μM DRB
[7] = biological target: T2, Cdk9 (Rattus norvegicus, UniProt Q641Z4); experiment: Immune complex CTD kinase assay (GST-CTD substrate), Cdk9; assay type: biochemical
T2 construct: endogenous in cells; host or cells: neonatal rat ventricular myocytes; immunoprecipitated with polyclonal rabbit anti-Cdk9 and protein A-Sepharose
Description: as §3, §2

[8] = biological target: Cdk9 (Homo sapiens, UniProt P50750); conditions: Zhu et al., 1997; cited from earlier work
[9] = test system: cyclin T/Cdk9 complex; experiment: Co-precipitation of 7SK snRNA with cyclin T/Cdk9 (RT-PCR of immune complexes); assay type: cell-based, rat; conditions: cardiac myocytes treated with ET-1
Description: Total RNA was isolated from Cdk9, cyclin T1, cyclin T2, and Cdk7 immune complexes using TRIzol and subjected to DNase I (Invitrogen) for 15 min at room temperature, followed by reverse transcription using antisense oligonucleotides for 7SK snRNA. The PCR primers were: sense, (SEQ. ID. NO. 3) […]; antisense, (SEQ. ID. NO. 4) […]. PCR products were subjected to electrophoresis on 2% agarose gel and stained with ethidium bromide.
ET-1 caused the rapid loss of Cdk9-associated 7SK snRNA, within 15 min. These findings were substantiated using each of three antibodies to the cyclin T/Cdk9 complex. Levels of 7SK RNA in the corresponding total cell lysates were unchanged. […] Thus, hypertrophic signals in cultured cardiac myocytes and the intact heart induce the dissociation of 7SK RNA from endogenous cyclin T/Cdk9. […] Conversely, endogenous cyclin T/Cdk9 was recovered from cardiac lysates using streptavidin-agarose plus a biotinylated 2′-O-methyl (2′-OMe) oligonucleotide complementary to 7SK snRNA (FIG. 3G): this method confirmed independently the dissociation of 7SK snRNA from cardiac cyclin T/Cdk9 for Gq and calcineurin.

[10] = biological target: cyclin dependent kinase 9 (Cdk9) (endogenous, mouse myocardium) (mouse) (UniProt Q99J95); experiment: cell-based or functional assay
[11] = 50 μM, cardiac myocytes, [3H]uridine incorporation
[12] = antisense knockdown of 7SK snRNA, 48 hr after transfection, cardiac myocytes

cyclin dependent kinase 9 (Cdk9) (endogenous, mouse myocardium) (mouse), sequence (Q99J95 whole entry): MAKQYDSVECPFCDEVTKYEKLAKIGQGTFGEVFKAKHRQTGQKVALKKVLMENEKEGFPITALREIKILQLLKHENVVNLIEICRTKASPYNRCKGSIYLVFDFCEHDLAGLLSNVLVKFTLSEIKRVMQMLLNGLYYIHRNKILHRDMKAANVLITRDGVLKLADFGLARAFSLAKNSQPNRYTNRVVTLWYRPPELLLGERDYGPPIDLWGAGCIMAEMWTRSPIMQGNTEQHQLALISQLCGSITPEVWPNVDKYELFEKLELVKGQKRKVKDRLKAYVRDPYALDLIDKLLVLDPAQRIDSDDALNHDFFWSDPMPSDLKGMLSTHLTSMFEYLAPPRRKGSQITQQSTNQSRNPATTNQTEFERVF
T2 sequence (Q641Z4 whole entry): as the sequence (Q99J95 whole entry) above
Cdk9 (Homo sapiens, UniProt P50750), sequence (P50750 whole entry, species assumed): as the sequence (Q99J95 whole entry) above, with T17S, K37R, Q40K, K258N, F262Y counted along it
Cdk9 (Homo sapiens, UniProt P50750), sequence (O60563 whole entry partner, species assumed): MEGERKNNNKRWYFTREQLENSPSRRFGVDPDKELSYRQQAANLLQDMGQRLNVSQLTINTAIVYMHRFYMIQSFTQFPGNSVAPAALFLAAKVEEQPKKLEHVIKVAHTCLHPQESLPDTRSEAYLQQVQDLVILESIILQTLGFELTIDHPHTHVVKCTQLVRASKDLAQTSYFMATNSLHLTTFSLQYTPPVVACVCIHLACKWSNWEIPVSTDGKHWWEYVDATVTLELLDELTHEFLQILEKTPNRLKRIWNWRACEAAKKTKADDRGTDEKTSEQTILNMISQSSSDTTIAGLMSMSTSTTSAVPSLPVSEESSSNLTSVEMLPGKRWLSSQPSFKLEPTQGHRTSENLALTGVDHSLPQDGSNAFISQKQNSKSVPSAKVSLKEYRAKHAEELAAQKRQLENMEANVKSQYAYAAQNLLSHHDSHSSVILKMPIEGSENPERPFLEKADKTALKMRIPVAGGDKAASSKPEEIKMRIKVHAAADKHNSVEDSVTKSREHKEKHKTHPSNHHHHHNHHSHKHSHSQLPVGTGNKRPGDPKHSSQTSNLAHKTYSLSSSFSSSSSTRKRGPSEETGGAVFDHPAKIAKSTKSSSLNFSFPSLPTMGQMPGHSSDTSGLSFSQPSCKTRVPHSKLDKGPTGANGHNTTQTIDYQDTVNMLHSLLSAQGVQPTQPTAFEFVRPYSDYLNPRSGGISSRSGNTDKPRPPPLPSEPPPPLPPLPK

Molecule: OC[C@H]1O[C@@H](n2cnc3cc(Cl)c(Cl)cc32)[C@H](O)[C@@H]1O [DRB, 5,6-dichloro-1-beta-D-ribofuranosylbenzimidazole]
ET-1-induced pol II phosphorylation ([1]; 50 μM DRB, preincubated 2 hr, ET-1 15 min, cultured cardiac myocytes): inhibited
Cdk7 activity (phosphorylation of recombinant CTD substrate) [2]: little or no effect
apoptosis ([3]; conditions sufficient to block ET-1 induction of pol II phosphorylation almost completely): no increase in apoptosis
cell death ([3]; higher concentrations that block RNA synthesis more completely): did induce cell death
inhibition of ET-1 induced RNA synthesis [4, 11]: ~80%
inhibition of basal RNA synthesis [4, 11]: ~80%
ET-1-associated increase in myocyte size [5]: blocked
phosphorylation of mitogen-activated protein kinases downstream of ET-1 [6]: without impairing
Cdk9 activity (phosphorylation of recombinant CTD substrate) ([7]; 50 μM DRB added in vitro to cardiac immune complexes): blocked Cdk9 activity almost completely
selectivity among CTD kinases [8]: selective activity against Cdk9

Molecule: CNC[C@H](O)c1cccc(O)c1 [PE, phenylephrine]
hyperphosphorylation of pol II [1]: induced

Molecule: antisense 7SK: antisense phosphorothioate oligonucleotide, SEQ. ID. NO. 1, 5′-CCTTGAGAGCTTGTTTGG AGG-3′, against 7SK snRNA (antisense CCTTGAGAGCTTGTTTGGAGG; all phosphorothioate, sugars by position and methylation of C not given here)
uridine incorporation [4, 12]: as large an increase in uridine incorporation as did ET-1 itself
endogenous Cdk9 activity [7, 12]: markedly increased

Cdk9 CTD kinase activity ([7]; ventricular myocytes stimulated with ET-1 for 15 min): increased
Molecule: endothelin-1 [ET-1]
increase in proportion of pol IIo ([1]; ET-1 time course, peak at 15 min, from 4% at baseline): 9 fold
maximum proportion of pol IIo ([1]; ET-1 time course, peak at 15 min, baseline 4%): 36%
preferred CTD heptad residue phosphorylated ([1]; phospho-epitope specific antibodies, Ser2 vs Ser5): preferentially induce phosphorylation at Ser2
hyperphosphorylation of pol II [1]: induced
augmentation of [3H]uridine incorporation ([4]; control eGFP-infected myocytes, 24 hr): one-third
time to loss of Cdk9-associated 7SK snRNA [9]: ≤ 15 min

Cdk9 activity (immune complex CTD kinase assay), high-expression transgenic line [10]: 6 fold
Cdk9 activity (immune complex CTD kinase assay), low-expression transgenic line [10]: 2 fold
baseline Cdk9 activity (immune complex kinase assay), cyclin T1 mice versus wild-type littermates [10]: 4.4 fold
Molecule: mouse cyclin T1 (cardiac-specific αMHC-cyclin T1 transgene) (from UniProt Q9QWV9 1-724)

B1: RNase A: bovine pancreas ribonuclease A (Sigma) (protein, UniProt P61823 27-150, looked up)
Ribonuclease pancreatic: KETAAAKFERQHMDSSTSAASSSNYCNQMMKSRNLTKDRCKPVNTFVHESLADVQAVCSQKNVACKNGQTNCYQSYSTMSITDCRETGSSKYPNCAYKTTQANKHIIVACEGNPYVPVHFDASV
Cdk9 kinase activity after treatment of immune complexes ([7]; RNase A 50 μg/ml 60 min, control cells, GST-CTD substrate): levels even higher than did ET-1

B2: heparin-binding epidermal growth factor (protein, UniProt Q99075 63-148, looked up)
Heparin-binding EGF-like …: DLQEADLDLLRVTLSSKPQALATPNKEEHGKRKKKGKGLGKKRDPCLRKYKDFCIHGECKYVKELRAPSCICHPGYHGERCHGLSL
notes: member of the EGF family, secreted mediator of growth signals in the heart
hyperphosphorylation of pol II [1]: induced
